Tests used:
gastrointestinal mucosa = settings: in vivo; cited from earlier work
submucosal lesions = test: Cytoprotection: inhibition of submucosal gastric lesions induced by oral 50 percent ethanol; format: in vivo, Male Charles River rats; settings: for Percent Inhibition of Submucosal Lesions, Oral: 2 percent aqueous ethanol vehicle; for Percent Inhibition of Submucosal Lesions, Topical: topical to shaved skin, 25 percent ethanolic water; for cytoprotection when applied topically (in words): topical, at the same unit dose as effective orally
Description: Male Charles River rats weighing about 200 g each were fasted overnight, but were allowed water ad libitum. Rats used for the topical administration of this invention were shaved on their dorsal sides one day prior to being used as host mammals.
Compositions containing the active ingredient were prepared for oral administration by dissolving a prostaglandin in a 2 percent aqueous ethanolic solution that was administered in a dose volume of 0.2 milliliters per kilogram (ml/kg) of body weight at the unit dosages shown in Table 1 hereinafter. […] A fixed concentration for each dose was applied to the skin in a volume of 0.2 ml per rat.
Gastric lesions were induced by oral administration of 1.0 ml of a 50 percent ethanolic water solution that was administered one hour after administration of each of the active ingredients. The rats were sacrificed by asphyxiation one hour after gastric lesion induction using carbon dioxide. The rat stomachs were then removed, inflated with water, opened along the greater curvature, and were laid out on a flat surface. The presence of mucosal bleeding was noted, the mucosal layers were wiped, and the presence or absence of hemorrhagic sites was recorded.
The incidences of lesions compared to controls were statistically analyzed by either the method of Chi-square using Yate's correction or Fisher's Exact Probability Test.

gastric acid secretion [1] = test: Inhibition of gastric acid secretion (pylorus ligation); format: in vivo, Male Charles River CD rats; settings: for Percent Inhibition of Acid, Intraduodenal / Percent Inhibition of Acid, Topical: 4 h after pylorus ligation; for Percent Inhibition of Acid, Intraduodenal: 2 percent ethanolic water; for Percent Inhibition of Acid, Topical: topical to shaved skin, 25 percent ethanolic water
Description: Male Charles River CD rats weighing about 180 g each were shaved on their dorsal sides and derpived of food for a time period of 18 hours prior to use. Water was permitted ad libitim during that time, but was removed during the times at which the rats were studied as host mammals.
Compositions containing the active ingredient were administered intraduodenally at 1 ml/kg or were applied to directly contact the shaved skin at 0.2 ml/animal at the time the pylorus of each animal was ligated.
The animals were sacrificed by asphyxiation four hours after pylorus ligation using carbon dioxide. The gastric contents were collected in graduated centrifuge tubes that were centrifuged. The centrifugally separated supernatents were then analyzed for volume and acidity. Acid concentration (secretion) was determined by electrometric titration of a 1 ml aliquot of the recovered gastric juice against 0.1N NaOH to a pH value of 7.4.
Treated groups were compared to the control and statistical differences were declared by the method of least significant differences.
(treatment-control)/control×100%

gastric acid secretion [2] = settings: given orally to rats, at any dose; cited from earlier work
[3] = test system: indomethacin-induced gastric lesions; settings: oral administration; cited from earlier work
gastric acid secretion [4] = settings: laboratory animals and man; cited from earlier work
[5] = 25 μg/kg, lesions by 50 percent ethanol 1 h after agent
[6] = 25 μg/kg (estimate based on 200 g rat)
[7] = 5 μg/kg (estimate based on 200 g rat)

C[N+]1(C)[C@@H]2C[C@@H](OC(=O)[C@H](CO)c3ccccc3)C[C@H]1[C@@H]1O[C@@H]12 (stereo in doubt) [methscopolamine bromide]
cytoprotective activity (gastrointestinal mucosa): not cytoprotective in the models employed

CN/C(=N/CCSCc1nc[nH]c1C)NC#N [cimetidine]
cytoprotective activity (gastrointestinal mucosa): not cytoprotective in the models employed

CCCCC(C)(O)C/C=C/[C@H]1[C@H](O)CC(=O)[C@@H]1CCCCCCCO (stereo partly drawn) [Rioprostil, (11α,13E)-1,11,16-trihydroxy-16-methyl-prost-13-en-9-one]
Percent Inhibition of Submucosal Lesions, Oral (submucosal lesions; [5]): 87% | Percent Inhibition of Submucosal Lesions, Topical (submucosal lesions; [6]): 75% | cytoprotection when applied topically (in words) (submucosal lesions): effective at the same oral dose when applied externally | Percent Inhibition of Acid, Intraduodenal (gastric acid secretion [1]; 8.0 mg/kg): 35% | Percent Inhibition of Acid, Topical (gastric acid secretion [1]; 8.0 mg/kg): 37%

CCCCC(C)(O)C/C=C/[C@H]1[C@H](O)CC(=O)[C@@H]1CCCCCCC(=O)OC (mixture of isomers) [Misoprostol, (±)(11α,13E)-11,16-dihydroxy-16-methyl-9-oxo-prost-13-en-1-oic acid methyl ester]
Percent Inhibition of Submucosal Lesions, Oral (submucosal lesions; 100 μg/kg): 87% | Percent Inhibition of Submucosal Lesions, Topical (submucosal lesions; 100 μg/kg (estimate based on 200 g rat)): 75% | cytoprotection when applied topically (in words) (submucosal lesions): effective at the same oral dose when applied externally | Percent Inhibition of Acid, Intraduodenal (gastric acid secretion [1]; 8.0 mg/kg): 38% | Percent Inhibition of Acid, Topical (gastric acid secretion [1]; 8.0 mg/kg): 43%

CCCCC(C)(C)[C@H](O)/C=C/[C@H]1C=CC(=O)[C@@H]1C/C=C\CCCC(=O)O [16,16-dimethyl PGA2]
antisecretory activity (gastric acid secretion [2]): not antisecretory at any dose when given orally to rats | cytoprotective activity (gastrointestinal mucosa): cytoprotective

CCCCC[C@H](O)/C=C/[C@H]1C=CC(=O)[C@@H]1CCCCCCC(=O)O [PGA1]
protection from indomethacin-induced gastric lesions [3]: does not protect rats from indomethacin-induced gastric lesions

CCCCC[C@H](O)/C=C/[C@H]1[C@H](O)CC(=O)[C@@H]1C/C=C\CCCC(=O)O [PGE2, 9-oxo-11α,15-dihydroxy-5-cis,13-transprostadienoic acid]
Percent Inhibition of Submucosal Lesions, Oral (submucosal lesions; [5]): 40% | Percent Inhibition of Submucosal Lesions, Topical (submucosal lesions; [6]): 20% | cytoprotection when applied topically (in words) (submucosal lesions): ineffective at providing cytoprotection when applied topically | gastric antisecretory activity (gastric acid secretion [4]): have gastric antisecretory activity in both laboratory animals and man

CCCCC[C@@](C)(O)/C=C/[C@@H]1[C@@H](C/C=C\CCCC(=O)O)[C@H](O)C[C@H]1O [15(R)-15 methyl PGF2β]
antisecretory activity (gastric acid secretion [2]): not antisecretory at any dose when given orally to rats | cytoprotective activity (gastrointestinal mucosa): cytoprotective

CCCCC[C@H](O)/C=C/[C@H]1[C@H](O)CC(=O)[C@@H]1CCCCCCC(=O)O [PGE1, 9-oxo-11 alpha,15-dihydroxy-13-trans-prostenoic acid]
Percent Inhibition of Submucosal Lesions, Oral (submucosal lesions; [5]): 60% | Percent Inhibition of Submucosal Lesions, Topical (submucosal lesions; [6]): 10% | cytoprotection when applied topically (in words) (submucosal lesions): ineffective at providing cytoprotection when applied topically | gastric antisecretory activity (gastric acid secretion [4]): have gastric antisecretory activity in both laboratory animals and man

COC(=O)CCC=C=CC[C@H]1C(=O)C[C@@H](O)[C@@H]1/C=C/C(O)COc1ccccc1 (relative stereo) [Enprostil, 7-[3-hydroxy-2-(3-hydroxy-4-phenoxy-1-butenyl)-5-oxocyclopentyl]-4,5-heptad ienoic acid methyl ester]
Percent Inhibition of Submucosal Lesions, Oral (submucosal lesions; 5 μg/kg): 100% | Percent Inhibition of Submucosal Lesions, Topical (submucosal lesions; [7]): 100% | cytoprotection when applied topically (in words) (submucosal lesions): effective at the same oral dose when applied externally | Percent Inhibition of Acid, Intraduodenal (gastric acid secretion [1]; 1.0 mg/kg): 71% | Percent Inhibition of Acid, Topical (gastric acid secretion [1]; 1.0 mg/kg): 32%

CCCCC(C)(C)C(O)/C=C/[C@H]1[C@H](C)CC(=O)[C@@H]1C/C=C\CCCC(=O)O (relative stereo) [Trimoprostil, (±)9-oxo-11α-methyl-15-hydroxy-16,16-dimethyl-5-cis,13-trans-prost adienoic acid]
Percent Inhibition of Acid, Intraduodenal (gastric acid secretion [1]; 8.0 mg/kg): 38% | Percent Inhibition of Acid, Topical (gastric acid secretion [1]; 8.0 mg/kg): 9% | inhibition of gastric acid when applied topically (in words) (gastric acid secretion [1]; topical, at the unit dosage effective intraduodenally): ineffective at significantly inhibiting production of gastric acid, when applied topically

CCCCC[C@H](O)/C=C/[C@H]1C(=O)C[C@H](O)[C@@H]1C/C=C\CCCC(=O)O [PGD2]
protection from indomethacin-induced gastric lesions [3]: does not protect rats from indomethacin-induced gastric lesions

CCCCC(C)(C)[C@H](O)/C=C/[C@H]1[C@H](O)CC(=O)[C@@H]1C/C=C\CCCC(=O)O [dmPGE2, (5Z,11α,13E,15R)-11,15-dihydroxy-16,16-dimethyl-9-oxo-prosta-5,13-1-o ic acid acid]
Percent Inhibition of Submucosal Lesions, Oral (submucosal lesions; 5 μg/kg): 100% | Percent Inhibition of Submucosal Lesions, Topical (submucosal lesions; [7]): 100% | cytoprotection when applied topically (in words) (submucosal lesions): effective at the same oral dose when applied externally | Percent Inhibition of Acid, Intraduodenal (gastric acid secretion [1]; 1.0 mg/kg): 29% | Percent Inhibition of Acid, Topical (gastric acid secretion [1]; 1.0 mg/kg): 26%

Reference: US4707495A, “Peptic ulcer treatment method” (Ortho Pharmaceutical, priority 1985, dated 1987)
